# Test results as given in PubChem BioAssay (NCI).
# Several values for one entry are separate records, joined by “and”; a condition that tells them apart may be missing. Equal values may be shown once.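 Assay format: 96-well plates, 48-hour exposure. Here, GI50 denotes the concentration required for 50% inhibition of growth. Definition used: TGI = concentration required for complete inhibition of growth.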
# System: UACC-62 melanoma
# Assay: NCI tumour cell line growth inhibition, 48 h
Structure (SMILES),GI50,TGI
CCCOc1cc2ccccc2cc1C(=O)Nc1nc(N)c2c(ccc3nccc32)[nH]1,0.0403 µM,1.96 µM
CC1(C)OC1COc1c2occc2cc2ccc(=O)oc12 (stereo not drawn),,> 100 µM
CC(=O)OCCOCNC(=S)N/N=C(\C)c1cnccn1,,36.5 µM
CCCCCCCCCCCCC(O)c1ccc(C#CCCCCCCCCCO)o1 (stereo not drawn),19.7 µM,40.3 µM
O=C(Nc1ccccc1-c1nn(C(=S)Nc2ccccc2)c(=S)n(C(=S)Nc2ccccc2)c1=O)C(F)(F)F,,44.4 µM
O=c1c(-c2ccccc2)c2oc(c1-c1ccccc1)CSCc1cccc(c1)CSC2,,> 100 µM
CN(C)CCn1c2c3ccccc3ccc2c2oc(=O)c3ccccc3c21,,71 µM

# System: SR leukemia
# Assay: NCI tumour cell line growth inhibition, 48 h
row,Structure (SMILES),TGI
1,COC(=O)CC(c1ccccc1)C1(c2ccccc2)SCCS1 (stereo not drawn),> 290 µM
2,CCOC(=O)C1=C(C(=O)OCC)C2c3ccccc3C=CN2C(C(=O)OCC)=C(SC)S1 (stereo not drawn),> 100 µM
3,CCCCCC[C@@H]1CCC2C(CO)[C@@H](O)CC[C@@H]2C1 (stereo partly drawn),53.6 µM
4,NC(=O)c1ccccc1NC(=O)C(=O)C(C(=O)c1ccc(Cl)c(Cl)c1)C1OC(=O)c2ccccc21 (stereo not drawn),> 100 µM
5,S=c1sc2c(n1-c1ccccc1)NC=NC2S (stereo not drawn),> 100 µM
6,Cc1ccc(/C=C/C(=O)CCN(C)C)cc1,62.7 µM
7,Cc1ccc(Oc2ccc(C)cc2N)cc1,> 100 µM
8,Cc1cc2c(C)[nH]nc2c(C(=O)O)c1C,> 100 µM
9,N#C/C(=C\c1cccc(Cl)c1Cl)c1ccccc1,> 80.9 µM
10,C/C(=N/Nc1ccc([N+](=O)[O-])cc1[N+](=O)[O-])C(CC(C(=O)NCc1ccccc1)/C(C)=N\Nc1ccc([N+](=O)[O-])cc1[N+](=O)[O-])C(=O)NCc1ccccc1 (stereo not drawn),35.7 µM
11,O=C(/C=C/c1ccc([N+](=O)[O-])cc1)c1ccc(NCc2nc3ccccc3[nH]2)cc1,8.15 µM
12,Cc1cccc(C)c1NC(=O)CCCC(=O)C1/C(=N/NC(=O)CC#N)CCC/C1=N\NC(=O)CC#N (stereo not drawn),> 100 µM
13,CC(C)(C)c1cc2c(O)c3cccc4c(=O)c5cccc6c5-c(c34)c2c(c1)c6=O,30.4 µM
14,O=C1C=CC(=O)c2nc3c(cc21)CCC3,27 µM
15,O=S(=O)(N/N=C/c1cccc(/C=N/NS(=O)(=O)c2ccccc2)c1)c1ccccc1,> 100 µM
16,CC(=O)OCCOCNC(=S)N/N=C(\C)c1cnccn1,> 100 µM

# System: U251 CNS
# Assay: NCI tumour cell line growth inhibition, 48 h
Structure (SMILES),TGI,GI50
COC(=O)CC(c1ccccc1)C1(c2ccccc2)SCCS1 (stereo not drawn),> 290 µM,
CCOC(=O)C1=C(C(=O)OCC)C2c3ccccc3C=CN2C(C(=O)OCC)=C(SC)S1 (stereo not drawn),> 100 µM,
CC(=O)NNc1nc(C)c(C(=O)/C=C/c2ccc(NC(C)=O)cc2)s1,> 100 µM,
CCCCCC[C@@H]1CCC2C(CO)[C@@H](O)CC[C@@H]2C1 (stereo partly drawn),33.9 µM,
NC(=O)c1ccccc1NC(=O)C(=O)C(C(=O)c1ccc(Cl)c(Cl)c1)C1OC(=O)c2ccccc21 (stereo not drawn),> 100 µM,
S=c1sc2c(n1-c1ccccc1)NC=NC2S (stereo not drawn),> 100 µM,
Cc1ccc(/C=C/C(=O)CCN(C)C)cc1,30 µM,
Cc1ccc(Oc2ccc(C)cc2N)cc1,> 100 µM,
c1ccc(NCn2cnc3ccccc32)cc1,> 100 µM,
Cc1cc2c(C)[nH]nc2c(C(=O)O)c1C,> 100 µM,
N#C/C(=C\c1cccc(Cl)c1Cl)c1ccccc1,69.5 µM,
C/C(=N/Nc1ccc([N+](=O)[O-])cc1[N+](=O)[O-])C(CC(C(=O)NCc1ccccc1)/C(C)=N\Nc1ccc([N+](=O)[O-])cc1[N+](=O)[O-])C(=O)NCc1ccccc1 (stereo not drawn),11.1 µM,
N[C@@H]1CCCC[C@@H]1N.O=P([O-])([O-])CN(CCN(CP(=O)([O-])[O-])CP(=O)([O-])[O-])CP(=O)([O-])[O-].[Pt+2],> 25 µM,> 25 µM
COc1ccc(OC)c(N2CC(N)C2=O)c1 (stereo not drawn),> 100 µM,
O=C1CCCCN1c1ccccc1C#C/C=C\C#Cc1ccccc1C(F)(F)F,5.26 µM,1.52 µM
O=C(/C=C/c1ccc([N+](=O)[O-])cc1)c1ccc(NCc2nc3ccccc3[nH]2)cc1,3.23 µM,
Cc1cccc(C)c1NC(=O)CCCC(=O)C1/C(=N/NC(=O)CC#N)CCC/C1=N\NC(=O)CC#N (stereo not drawn),> 100 µM,
CN(C)CC1CC/C(=C\c2ccc(O)cc2)C1=O (stereo not drawn),12.5 µM,
O=c1ccc2ccccc2cc1[O-].O=c1ccc2ccccc2cc1[O-].[O]=[U+2]=[O],46.5 µM,16.5 µM

Structure (SMILES),TGI,GI50
Cc1ccc(-n2c3nc(=O)[nH]c(=O)c-3cc3cc([N+](=O)[O-])ccc32)cc1,> 100 µM,5.14 µM
COC(=O)C(CCCN1C(=O)c2ccccc2C1=O)C(=O)OC,> 100 µM,
COc1nc(NC2OC(COC(C)=O)C(OC(C)=O)C(OC(C)=O)C2OC(C)=O)c2c(OC(C)=O)cc(=O)oc2n1 (stereo not drawn),> 100 µM,
CC(C)(C)c1cc2c(O)c3cccc4c(=O)c5cccc6c5-c(c34)c2c(c1)c6=O,> 100 µM,
CC1=C2C(=C[C@@](C)(CO)[C@@H]2O)C(=O)[C@](C)(O)C12CC2,0.0243 µM and 0.0794 µM,
O=C1C=CC(=O)c2nc3c(cc21)CCC3,> 100 µM,
O=S(=O)(N/N=C/c1cccc(/C=N/NS(=O)(=O)c2ccccc2)c1)c1ccccc1,> 100 µM,
CCCCN(CCCC)C(=O)C(=O)C(C(=O)c1ccc(OC)cc1)c1ccc(OC)cc1 (stereo not drawn),> 100 µM,
C=C(C)CCOC(c1ccccc1)(c1ccccc1)c1ccccc1,> 100 µM,
COc1ccc(C)cc1-c1cc(Sc2ccccc2)c(-c2cc(C)ccc2OC)o1,> 31.6 µM,
CC(=O)O/N=C(/C)c1ccccc1O,> 100 µM,
CCCOc1cc2ccccc2cc1C(=O)Nc1nc(N)c2c(ccc3nccc32)[nH]1,1.4 µM,0.0527 µM
CC1(C)OC1COc1c2occc2cc2ccc(=O)oc12 (stereo not drawn),> 100 µM,
CC(=O)OCCOCNC(=S)N/N=C(\C)c1cnccn1,> 100 µM,
CCCCCCCCCCCCC(O)c1ccc(C#CCCCCCCCCCO)o1 (stereo not drawn),33.6 µM,18.5 µM
O=C(Nc1ccccc1-c1nn(C(=S)Nc2ccccc2)c(=S)n(C(=S)Nc2ccccc2)c1=O)C(F)(F)F,> 70.9 µM,
O=c1c(-c2ccccc2)c2oc(c1-c1ccccc1)CSCc1cccc(c1)CSC2,88.2 µM,
CN(C)CCn1c2c3ccccc3ccc2c2oc(=O)c3ccccc3c21,20 µM,
